A word on the IC50: it is the concentration that inhibits the measured activity by half. A lower IC50 goes with greater potency in that assay. A word on the inhibition: it is the drop in the measured response relative to a control, in per cent.

Where only a bound is given, the exact number is not on record here.

The first experiment deals with NLRP3 inflammasome (Homo sapiens (Human), UniProt Q96P20). The experiment can be described thus: Evaluation of NLRP3 inflammasome inhibitory activity (inhibition of IL-1β production in THP1-Null cells, LPS/Nigericin).
Sequence of NLRP3 inflammasome (Q96P20 whole entry): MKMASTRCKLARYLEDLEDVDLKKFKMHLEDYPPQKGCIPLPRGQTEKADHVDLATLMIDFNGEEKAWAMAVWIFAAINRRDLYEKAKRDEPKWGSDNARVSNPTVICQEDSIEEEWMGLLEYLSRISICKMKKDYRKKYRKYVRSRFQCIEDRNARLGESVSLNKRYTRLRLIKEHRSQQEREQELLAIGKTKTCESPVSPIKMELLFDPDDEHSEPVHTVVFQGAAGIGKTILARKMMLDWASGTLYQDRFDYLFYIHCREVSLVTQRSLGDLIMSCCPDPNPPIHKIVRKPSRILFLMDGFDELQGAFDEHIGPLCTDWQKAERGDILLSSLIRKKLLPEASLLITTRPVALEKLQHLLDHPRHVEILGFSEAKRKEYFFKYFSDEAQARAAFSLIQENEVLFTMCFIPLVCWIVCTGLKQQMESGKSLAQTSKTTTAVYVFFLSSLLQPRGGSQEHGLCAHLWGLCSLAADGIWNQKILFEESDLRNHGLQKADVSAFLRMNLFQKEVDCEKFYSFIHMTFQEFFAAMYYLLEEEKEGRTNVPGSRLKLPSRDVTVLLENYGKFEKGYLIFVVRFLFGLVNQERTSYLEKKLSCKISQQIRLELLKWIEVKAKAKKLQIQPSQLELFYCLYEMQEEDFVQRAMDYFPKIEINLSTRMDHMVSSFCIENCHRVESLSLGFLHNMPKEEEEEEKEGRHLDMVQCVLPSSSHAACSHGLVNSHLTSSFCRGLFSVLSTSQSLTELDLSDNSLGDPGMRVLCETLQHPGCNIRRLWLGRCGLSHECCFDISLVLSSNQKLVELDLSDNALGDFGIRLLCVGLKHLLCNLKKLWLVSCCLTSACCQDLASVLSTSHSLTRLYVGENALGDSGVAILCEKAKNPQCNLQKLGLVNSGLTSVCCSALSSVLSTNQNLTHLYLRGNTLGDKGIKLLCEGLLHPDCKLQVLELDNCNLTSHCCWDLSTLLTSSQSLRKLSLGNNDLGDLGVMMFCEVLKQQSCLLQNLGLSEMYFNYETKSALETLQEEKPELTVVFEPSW
Settings: not given
Molecule `Cc1ccc(C(F)(F)F)cc1Nc1nc(C(=O)NS(=O)(=O)N2CCCN(S(=O)(=O)C3CCOC3)CC2)co1` (racemic) [Example 2-220] gave an IC50 of 67 nM.
As for `CCC1COCCN1S(=O)(=O)NC(=O)c1cnc(Nc2c3c(cc4c2CCC4)CCC3)o1` (racemic) [Example 11], the IC50 was 72 nM.
The same measure, in the same setting: with `Cc1ccc(C2CC2)cc1Nc1nc(C(=O)NS(=O)(=O)N2CCC(O)C2)co1` (racemic) [Example 2-002] the figure was 160 nM; with `CCC1CN(S(=O)(=O)NC(=O)c2coc(Nc3cc(C(F)(F)F)ccc3C)n2)CCO1` (racemic) [Example 2-006], 31 nM.
Same read-out and setting: the same measure for `CCOC1COCCN(S(=O)(=O)NC(=O)c2coc(Nc3cc(C(C)C)ccc3C)n2)C1` (racemic) [Example 2-319]: 110 nM.
Still for that read-out and setting: the same measure for `CCS(=O)(=O)N1CCCN(S(=O)(=O)NC(=O)c2coc(Nc3cc(C(F)(F)F)ccc3C)n2)C(C)C1` (racemic) [Example 2-241]: 37 nM; for `COC(C)c1ccc(C)c(Nc2nc(C(=O)NS(=O)(=O)N(C)C)co2)c1` (racemic) [Example 2-061]: 570 nM; for `COC1CCCN(S(=O)(=O)NC(=O)c2coc(Nc3cc(C(F)(F)F)ccc3C)n2)C1` (racemic) [Example 2-159]: 61 nM.
The molecule `COCC1CN(S(=O)(=O)NC(=O)c2coc(Nc3c4c(c(Cl)c5c3CCC5)CCC4)n2)CCO1` (racemic) [Example 38] came in with an IC50 of 73 nM.
On the same count and under the same terms, with `Cc1ccc(C(F)(F)F)cc1Nc1nc(C(=O)NS(=O)(=O)N2CCCC(C(=O)N(C)C)CC2)co1` (racemic) [Example 2-157] the figure was 38 nM; with `Cc1ccc(C(F)(F)F)cc1Nc1nc(C(=O)NS(=O)(=O)N2CCCOC(C)C2)co1` (racemic) [Example 2-230], 89 nM.
Same read-out and setting: the same measure for `O=C(NS(=O)(=O)N1CCCC1C(F)(F)F)c1coc(Nc2c3c(c(Cl)c4c2CCC4)CCC3)n1` (racemic) [Example 40]: 930 nM; for `COCC1CN(S(=O)(=O)NC(=O)c2coc(Nc3cc(C(F)(F)F)ccc3C)n2)CCCO1` (racemic) [Example 2-091]: 38 nM.
Same read-out and setting: the same measure for `Cc1ccc(C(F)(F)F)cc1Nc1nc(C(=O)NS(=O)(=O)N2CCOCC2CO)co1` (racemic) [Example 2-045]: 180 nM; for `O=C(NS(=O)(=O)N1CCC(O)C1)c1coc(Nc2c3c(c(Cl)c4c2CCC4)CCC3)n1` (racemic) [Example 41]: 77 nM.
In turn, `COCC1CN(S(=O)(=O)NC(=O)c2coc(Nc3c(C(C)C)ccc4c3CCC4)n2)CCO1` (racemic) [Example 2-120] returned an IC50 of 160 nM.
Still for that read-out and setting: the same measure for `COC1COCCN(S(=O)(=O)NC(=O)c2coc(Nc3cc(C)ccc3C(C)C)n2)C1` (racemic) [Example 2-310]: 98 nM.
`COC1COCCN(S(=O)(=O)NC(=O)c2coc(Nc3cc(C(F)(F)F)ccc3C)n2)C1` (racemic) [Example 2-076]: the IC50 stood at 25 nM.
`Cc1ccc(C(F)(F)F)cc1Nc1nc(C(=O)NS(=O)(=O)N2CCOCCC2C)co1` (racemic) [Example 2-058] showed an IC50 of 54 nM.
Same read-out and setting: the same measure for `CCCCS(=O)(=O)N1CCN(S(=O)(=O)NC(=O)c2coc(Nc3cc(C(F)(F)F)ccc3C)n2)CC(OC)C1` (racemic) [Example 2-204]: 29 nM; for `CS(=O)(=O)C1CCN(S(=O)(=O)NC(=O)c2coc(Nc3c4c(c(Cl)c5c3CCC5)CCC4)n2)C1` (racemic) [Example 47]: 420 nM.

Staying with this experiment, now noted: IL-1β production in THP1-Null cells, PMA/LPS primed, Nigericin 7.5 μmol/L.
Molecule `Cc1ccc2c(c1Nc1nc(C(=O)NS(=O)(=O)N3CCCC3)co1)CCC2` [Example 31] returned an IC50 of 310 nM.
On the same count and under the same terms, with `O=C(NS(=O)(=O)N1CCCC1)c1cnc(Nc2c3c(cc4c2CCC4)CCC3)o1` [Example 6] the figure was under 30 nM; with `CN(C)S(=O)(=O)C1CCN(S(=O)(=O)NC(=O)c2coc(Nc3c4c(c(F)c5c3CCC5)CCC4)n2)CC1` [Example 66], under 30 nM.
The same measure, in the same setting: the same measure for `CS(=O)(=O)C1CCN(S(=O)(=O)NC(=O)c2coc(Nc3c4c(c(Cl)c5c3CCC5)CCC4)n2)CC1` [Example 43]: under 30 nM; for `O=C(NS(=O)(=O)N1C2CCC1CC2)c1coc(Nc2c3c(c(Cl)c4c2CCC4)CCC3)n1` [Example 50]: 720 nM; for `CO[C@@H]1CCN(S(=O)(=O)NC(=O)c2coc(Nc3c4c(c(Cl)c5c3CCC5)CCC4)n2)C1` [Example 36]: 92 nM.
In turn, `CS(=O)(=O)C1CCN(S(=O)(=O)NC(=O)c2coc(Nc3c4c(c(F)c5c3CCC5)CCC4)n2)CC1` [Example 58] registered an IC50 of 39 nM.
The same measure, in the same setting: the same measure for `O=C(NS(=O)(=O)N1CCC(F)(F)C1)c1coc(Nc2c3c(c(Cl)c4c2CCC4)CCC3)n1` [Example 49]: 270 nM; for `O=C(NS(=O)(=O)N1C[C@H]2COC[C@H]2C1)c1coc(Nc2c3c(c(F)c4c2CCC4)CCC3)n1` [Example 60]: 130 nM; for `CC(C)NS(=O)(=O)NC(=O)c1cnc(Nc2c3c(cc4c2CCC4)CCC3)o1` [Example 7]: 200 nM.
The same measure, in the same setting: with “2-((8-chloro-1,2,3,5,6,7-hexahydro-s-indacen-4-yl)amino)-N—(N,N-dimethylsulfamoyl)oxazole-4-carboxamide [Example 23]” the figure was under 30 nM.
On the same count and under the same terms, with `O=C(NS(=O)(=O)N1CCS(=O)(=O)CC1)c1coc(Nc2c3c(c(Cl)c4c2CCC4)CCC3)n1` [Example 42] the figure was 970 nM.

Staying with this experiment, now noted: inhibition of IL-1β production in THP1-Null cells.
For `Cc1cc(F)c(C(F)(F)F)cc1Nc1nc(C(=O)NS(=O)(=O)N2CCCOCC2)co1` [Example 2-213], the IC50 was 39 nM.
Same read-out and setting: with `CCCS(=O)(=O)N1CCCN(S(=O)(=O)NC(=O)c2coc(Nc3ccccc3C)n2)CC1` [Example 2-269] the figure was 350 nM.
On the same count and under the same terms, with `Cc1cn(C(C)C)nc1Nc1nc(C(=O)NS(=O)(=O)N2CCCOCC2)co1` [Example 2-147] the figure was 420 nM.
The same measure, in the same setting: with `CC(C)c1ccc(C(F)F)cc1Nc1nc(C(=O)NS(=O)(=O)N(C)C)co1` [Example 2-105] the figure was 86 nM; with `CC(C)n1cc(Nc2nc(C(=O)NS(=O)(=O)N3CCCOCC3)co2)c(C2CCC2)n1` [Example 2-196], 2700 nM; with `CCCS(=O)(=O)N1CCCN(S(=O)(=O)NC(=O)c2coc(Nc3cc(C)cc(C)c3C)n2)CC1` [Example 2-288], 120 nM.
Molecule `Cc1ccc(C2CC2)cc1Nc1nc(C(=O)NS(=O)(=O)N2CCCOCC2)co1` [Example 2-042] gave an IC50 of 56 nM.
Still for that read-out and setting: with `Cc1ccc(C2CC2)cc1Nc1nc(C(=O)NS(=O)(=O)N(C)C)co1` [Example 2-035] the figure was 220 nM; with `Cc1ccc2c(c1Nc1nc(C(=O)NS(=O)(=O)N3CCCOCC3)co1)CCC2` [Example 2-097], 150 nM; with `Cc1ccc(C(F)(F)F)cc1Nc1nc(C(=O)NS(=O)(=O)N2CCCN(c3ccncn3)CC2)co1` [Example 2-214], 89 nM.
On the same count and under the same terms, the same measure for `Cc1ccc(C(F)F)cc1Nc1nc(C(=O)NS(=O)(=O)N2CCOC(COC(F)F)CC2)co1` (centres unmarked) [Example 2-328]: 30 nM; for `COC(=O)N1CCCN(S(=O)(=O)NC(=O)c2coc(Nc3cc(C(F)(F)F)ccc3C)n2)CC1` [Example 2-101]: 39 nM; for `Cc1ccc(C(C)C)cc1Nc1nc(C(=O)NS(=O)(=O)N2CCOCC2(C)C)co1` [Example 2-098]: 250 nM.
On the same count and under the same terms, with `CCCS(=O)(=O)N1CCCN(S(=O)(=O)NC(=O)c2coc(Nc3cc(CC)ccc3C)n2)CC1` [Example 2-256] the figure was 15 nM; with `Cc1ccc(C(F)(F)F)cc1Nc1nc(C(=O)NS(=O)(=O)N2CCCNCC2)co1` [Example 2-029], 180 nM.
For the molecule `CC(C)n1cc(Nc2nc(C(=O)NS(=O)(=O)N3CCCOCC3)co2)c(C2CC2)n1` [Example 2-195], the IC50 worked out at 1400 nM.
Still for that read-out and setting: the same measure for `CCC(=O)N1CCCN(S(=O)(=O)NC(=O)c2coc(Nc3cc(C(F)(F)F)ccc3C)n2)CC1` [Example 2-102]: 50 nM; for `CCCCS(=O)(=O)N1CCCN(S(=O)(=O)NC(=O)c2coc(Nc3nn(C(C)C)cc3C)n2)CC1` [Example 2-181]: 31 nM; for `Cc1ccc(C(F)(F)F)cc1Nc1nc(C(=O)NS(=O)(=O)N2CCCN(S(=O)(=O)C3CC3)CC2)co1` [Example 2-103]: 20 nM.
Still for that read-out and setting: the same measure for `Cc1ccc(C(F)(F)F)cc1Nc1nc(C(=O)NS(=O)(=O)N2CCOCC2)cs1` [Example 2-065]: 32 nM.
Same read-out and setting: with `CCOCC1CCN(S(=O)(=O)NC(=O)c2coc(Nc3cc(C(C)C)ccc3C)n2)CCO1` (centres unmarked) [Example 2-325] the figure was 25 nM; with `Cc1cnc(C(F)(F)F)cc1Nc1nc(C(=O)NS(=O)(=O)N2CCCOCC2)co1` [Example 2-075], 4500 nM; with `CC(C)n1nc2c(c1Nc1nc(C(=O)NS(=O)(=O)N(C)C)co1)CCC2` [Example 2-014], 6000 nM.
As for `CCCS(=O)(=O)N1CCCN(S(=O)(=O)NC(=O)c2coc(Nc3cc(C(F)F)ccc3C(C)C)n2)CC1` [Example 2-224], the concentration for half-maximal inhibition (IC50) was determined as 27 nM.
The same measure, in the same setting: the same measure for `Cc1ccc(C(C)(F)F)cc1Nc1nc(C(=O)NS(=O)(=O)N2CCOCC2)co1` [Example 2-015]: 38 nM; for `COC1CCN(S(=O)(=O)NC(=O)c2coc(Nc3cc(C(F)(F)F)ccc3C)n2)CC1` [Example 2-158]: 100 nM; for `Cc1ccc2c(c1Nc1nc(C(=O)NS(=O)(=O)N3CCCOCC3)cs1)CCC2` [Example 2-085]: 120 nM.
Still for that read-out and setting: with `CCCS(=O)(=O)N1CCCN(S(=O)(=O)NC(=O)c2coc(Nc3cc(Cl)ccc3C)n2)CC1` [Example 2-291] the figure was 73 nM; with `CCCCS(=O)(=O)N1CCCN(S(=O)(=O)NC(=O)c2coc(Nc3nn(C(C)C)cc3C(C)C)n2)CC1` [Example 2-177], 47 nM; with `Cc1ccc(C(C)C)cc1Nc1nc(C(=O)NS(=O)(=O)N2CCCOCC2)cs1` [Example 2-056], under 30 nM.
The same measure, in the same setting: the same measure for `CCOCC1CCN(S(=O)(=O)NC(=O)c2coc(Nc3cc(C)ccc3C)n2)CCO1` (centres unmarked) [Example 2-305]: 49 nM.

The experiment is the same for the next values; noted with them: read-out: % inhibition at 3 μM.
For the molecule `COCCCc1cc(C)c(Nc2nc(C(=O)NS(=O)(=O)N(C)C)co2)cc1C(C)C` [Example 2-238], the inhibition at 3 µM is 11%.

For the origin of these results see patent publication US20230399319A1, “Acylsulfamide Compound and Pharmaceutical Use Therefor” (Japan Tobacco Inc., priority 2019, published 2023).
